# Experimental data as given in PubChem BioAssay AID1963863 (Molecular Pharmacology Branch, DTP, NCI, 2024).
# Where “and” joins values, the source holds several entries; their conditions need not be identical. Identical values can stand only once.
# Test system: 931267-113-T-J1-PDC KRAS spheroid with HUVEC/MSC, viability
# Experiment: Anticancer human tumor 931267-113-T-J1-PDC patient-derived colon adenocarcinoma cell line growth inhibition [KRAS2]
# Details: for viability, T/C: stronger effect = lower value
# Outline: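 KRAS-mutant tumor cells were grown as spheroids with HUVEC endothelial cells and human MSCs as stroma. Targeted agents were tested alone and with KRAS pathway inhibitors. Doses started at or near clinical Cmax, or 10 microM, descending half-log.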
# [1] = curve of first compound, second compound 0.1 µM
# [2] = curve of first compound, second compound 0.316 µM
# [3] = curve of first compound, second compound 1 µM
# [4] = curve of first compound, second compound 3.16 µM
# [5] = curve of first compound, second compound 10 µM
# [6] = second compound 0.1 µM, first compound 0.0316 µM
# [7] = second compound 0.1 µM, first compound 0.1 µM
# [8] = second compound 0.1 µM, first compound 0.316 µM
# [9] = second compound 0.1 µM, first compound 1 µM
# [10] = second compound 0.1 µM, first compound 3.16 µM
# [11] = second compound 0.316 µM, first compound 0.0316 µM
# [12] = second compound 0.316 µM, first compound 0.1 µM
# [13] = second compound 0.316 µM, first compound 0.316 µM
# [14] = second compound 0.316 µM, first compound 1 µM
# [15] = second compound 0.316 µM, first compound 3.16 µM
# [16] = second compound 1 µM, first compound 0.0316 µM
# [17] = second compound 1 µM, first compound 0.1 µM
# [18] = second compound 1 µM, first compound 0.316 µM
# [19] = second compound 1 µM, first compound 1 µM
# [20] = second compound 1 µM, first compound 3.16 µM
# [21] = second compound 3.16 µM, first compound 0.0316 µM
# [22] = second compound 3.16 µM, first compound 0.1 µM
# [23] = second compound 3.16 µM, first compound 0.316 µM
# [24] = second compound 3.16 µM, first compound 1 µM
# [25] = second compound 3.16 µM, first compound 3.16 µM
# [26] = second compound 10 µM, first compound 0.0316 µM
# [27] = second compound 10 µM, first compound 0.1 µM
# [28] = second compound 10 µM, first compound 0.316 µM
# [29] = second compound 10 µM, first compound 1 µM
# [30] = second compound 10 µM, first compound 3.16 µM
# 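Note: compound exposure lasted 7 days before the readout.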
# 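Throughout, for viability, T/C: 100% = DMSO vehicle control viability.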
smiles,measurement,setting,value
CCN1CCN(Cc2ccc(Nc3ncc(F)c(-c4cc(F)c5nc(C)n(C(C)C)c5c4)n3)nc2)CC1,"viability, T/C",compound 0.00316 µM,85.5% [middle of 5 runs]
same,"viability, T/C",compound 0.01 µM,88.8% [middle of 5 runs]
same,"viability, T/C",compound 0.0316 µM,70.4% [middle of 5 runs]
same,"viability, T/C",compound 0.1 µM,70% [middle of 5 runs]
same,"viability, T/C",compound 0.316 µM,65% [middle of 5 runs]
same,"viability, T/C",compound 1 µM,48.4% [middle of 5 runs]
same,IC50,curve of compound,> 1000 nM and 595 nM and 960 nM
Cn1nccc1Nc1nccc(-c2cc3c(s2)C(C)(C)N(CCN2CCOCC2)C3=O)n1,"viability, T/C",compound 0.0316 µM,91% [middle of 5 runs]
same,"viability, T/C",compound 0.316 µM,68.6% [middle of 5 runs]
same,"viability, T/C",compound 1 µM,30.6% [middle of 5 runs]
same,"viability, T/C",compound 3.16 µM,7.98% [middle of 5 runs]
same,"viability, T/C",compound 10 µM,4.32% [middle of 5 runs]
same,IC50,curve of compound,574 nM [middle of 4 runs]
CC1COCCN1c1cc(-c2ccnn2C)c2ccnc(-c3ccn[nH]3)c2n1 (stereo not given) + CC1OCC2(CCN(c3cnc(Sc4ccnc(N)c4Cl)c(N)n3)CC2)C1N,IC50,[1],42.4 nM
same,IC50,[2],45.3 nM
same,IC50,[3],44.3 nM
same,IC50,[4],33.2 nM
same,IC50,[5],59.9 nM
same,"viability, T/C","second compound 0.1 µM, first compound 0.01 µM",92.3%
same,"viability, T/C",[6],57.3%
same,"viability, T/C",[7],28.9%
same,"viability, T/C",[8],16.6%
same,"viability, T/C",[9],16.9%
same,"viability, T/C",[10],19.5%
same,"viability, T/C","second compound 0.316 µM, first compound 0.01 µM",81.2%
same,"viability, T/C",[11],63.4%
same,"viability, T/C",[12],20.6%
same,"viability, T/C",[13],15.6%
same,"viability, T/C",[14],19%
same,"viability, T/C",[15],18.6%
same,"viability, T/C","second compound 1 µM, first compound 0.01 µM",91.1%
same,"viability, T/C",[16],58.5%
same,"viability, T/C",[17],29.6%
same,"viability, T/C",[18],18.1%
same,"viability, T/C",[19],18.5%
same,"viability, T/C",[20],13.6%
same,"viability, T/C","second compound 3.16 µM, first compound 0.01 µM",80.6%
same,"viability, T/C",[21],50.4%
same,"viability, T/C",[22],29.3%
same,"viability, T/C",[23],16.1%
same,"viability, T/C",[24],15.4%
same,"viability, T/C",[25],18.4%
same,"viability, T/C","second compound 10 µM, first compound 0.01 µM",86.9%
same,"viability, T/C",[26],80.5%
same,"viability, T/C",[27],25.6%
same,"viability, T/C",[28],14.4%
same,"viability, T/C",[29],13.9%
same,"viability, T/C",[30],15.6%
CC1OCC2(CCN(c3cnc(Sc4ccnc(N)c4Cl)c(N)n3)CC2)C1N (stereo not given) + CNCc1ccccc1-c1csc(C(C)Nc2nc(C)nc3cc(OC)c(OC)cc23)c1,IC50,[1],> 10000 nM
same,IC50,[2],> 10000 nM
same,IC50,[3],31.6 nM
same,IC50,[4],< 31.6 nM
same,IC50,[5],< 31.6 nM
same,"viability, T/C",[6],96.8%
same,"viability, T/C",[7],70.7%
same,"viability, T/C",[8],66.5%
same,"viability, T/C",[9],68.3%
same,"viability, T/C",[10],61.1%
same,"viability, T/C","second compound 0.1 µM, first compound 10 µM",59.8%
same,"viability, T/C",[11],88.6%
same,"viability, T/C",[12],89.3%
same,"viability, T/C",[13],72%
same,"viability, T/C",[14],63.2%
same,"viability, T/C",[15],78.8%
same,"viability, T/C","second compound 0.316 µM, first compound 10 µM",81.8%
same,"viability, T/C",[16],51.3%
same,"viability, T/C",[17],44.8%
same,"viability, T/C",[18],54.2%
same,"viability, T/C",[19],33.1%
same,"viability, T/C",[20],33.2%
same,"viability, T/C","second compound 1 µM, first compound 10 µM",27.5%
same,"viability, T/C",[21],0.09%
same,"viability, T/C",[22],0.09%
same,"viability, T/C",[23],0.08%
same,"viability, T/C",[24],0.08%
same,"viability, T/C",[25],0.08%
same,"viability, T/C","second compound 3.16 µM, first compound 10 µM",0.17%
same,"viability, T/C",[26],0.12%
same,"viability, T/C",[27],0.19%
same,"viability, T/C",[28],0.13%
same,"viability, T/C",[29],0.13%
same,"viability, T/C",[30],0.12%
same,"viability, T/C","second compound 10 µM, first compound 10 µM",0.17%
C=CC(=O)N1CCN(c2nc(OCC3CCCN3C)nc3c2CCN(c2cccc4cccc(C)c24)C3)CC1CC#N (stereo not given),IC50,"compound alone, run of 08/26/2021",1.65 µM [middle of 5 runs]
same,IC50,"compound alone, run of 09/02/2021",1.62 µM [middle of 5 runs]
